Experimental findings from patent US8048888B2, “Anti-proliferative combination therapy using certain platinum-based chemotherapeutic agents and EGFR inhibitors or pyrimidine analogues” (Agennix AG, priority 2005, dated 2011) are described below.

Where two headings read alike, the source gives them in different places.

The test system of one data set is MCF7 cell line. Kind of data set: SRB assay, simultaneous JM118 and 5FU, 48 hours. It is filed as cell-based. Conditions: Homo sapiens, read-out: Growth inhibition. How it is done: For this experiment the human colorectal carcinoma cell line HCT 116 (ATCC order number: CCL-247; Cancer Res (1981) 41, 1751; J Natl Cancer Inst (1982) 69, 767) and the human adenocarcinoma cell line MCF7 (ATCC order number: HTB-22; Cancer Res (1983) 43, 2831; Science (1985) 230, 943) were used.
5FU was dissolved in 0.1% DMSO at a concentration of 20 mM.
Cells were incubated with both compounds simultaneously.

Data set [1] has as its system MX-1 tumor (human breast carcinoma). The conditions noted are these: for Median tumor volume / T/C %: capecitabine 750 mg/kg/adm PO Q1Dx8. As for the experimental part:
Healthy female SWISS nu/nu mice, 6-7 weeks old, 17-22 g, were obtained from Charles River (L'Arbresle, France). Animals were acclimated for seven days in a specific-pathogen-free (SPF) animal care unit before treatment. MX-1 tumor implants were purchased and provided by Oncodesign (Dijon, France). MX-1 is a human breast carcinoma cell line.
To induce MX-1 tumors in nude mice ten female SWISS nude mice were subcutaneously implanted with thawed fragments of MX-1 tumor 24 hours after whole body irradiation with a γ-source (Co^60, INRA, Dijon, France). Mice were continuously monitored and terminated when tumors reached 700 to 1000 mm^3. Tumors were then surgically excised and homogenous fresh fragments were subcutaneously implanted in the right flanks of 130 SWISS nude mice.
Ninety (90) mice were randomized into 9 groups of 10 mice each.
Suspensions were continuously agitated during administration to mice.
The treatment schedule was as follows (all dosage indicated are dosages per administration): • Mice from group 1 received one daily PO (oral) administration of satraplatin vehicle (arachis oil, see above) for 5 consecutive days from D21 (day 21) to D25 (referred to as Q1D×5) in combination with one daily PO administration of capecitabine vehicle (Citrate buffer containing Arabic gum, see above) for 8 consecutive days from D21 to D28 (Q1D×8), • Mice from group 2 received one daily PO administration of capecitabine at 750 mg/kg (milligram per kilogram of body weight) for 8 consecutive days from D21 to D28 (Q1D×8), • Mice from group 3 received one daily PO administration of satraplatin at 5 mg/kg for 5 consecutive days from D21 to D25 (Q1D×5), • Mice from group 4 received one daily PO administration of satraplatin at 15 mg/kg for 5 consecutive days from D21 to D25 (Q1 D×5), • Mice from group 5 received one daily PO administration of satraplatin at 25 mg/kg for 5 consecutive days from D21 to D25 (Q1D×5), • Mice from group 6 received one daily PO administration of satraplatin at 45 mg/kg for 5 consecutive days from D21 to D25 (Q1D×5), • Mice from group 7 received one daily PO administration of satraplatin at 5 mg/kg for 5 consecutive days from D21 to 025 (Q1D×5) in combination with one daily PO administration of capecitabine at 750 mg/kg for 8 consecutive days from D21 to D28 (Q1D×8), • Mice from group 8 received one daily PO administration of satraplatin at 15 mg/kg for 5 consecutive days from D21 to D25 (Q1D×5) in combination with one daily PO administration of capecitabine at 750 mg/kg for 8 consecutive days from D21 to D28 (Q1D×8), • Mice from group 9 received one daily PO administration of satraplatin at 25 mg/kg for 5 consecutive days from D21 to D25 (Q1D×5) in combination with one daily PO administration of capecitabine at 750 mg/kg for 8 consecutive days from D21 to D28 (Q1D×8). Satraplatin was administered 30 minutes after capecitabine. Satraplatin and capecitabine were administered at a dose volume of 10 ml/kg body weight.
During the course of the experiment, viability and behaviour of mice were recorded every day. Mice body weight and tumor volume was recorded twice a week. Mice were terminated when tumor weight was equivalent to 10% of body weight or when a body weight loss of 20% was observed.
Tumor growth inhibition (T/C %) is defined as the ratio of the median tumor volume of a given treated group (test or reference substance) versus the equivalent median volume from the control group. T/C % is calculated as follows: […]
The optimal value is the minimal T/C % ratio that reflects the maximal tumor growth inhibition achieved.
Tumor Log cell kill was calculated using the following formula:
[formula] wherein DT is the doubling time of the tumor.

The subject of the next data set is A129. Kind of data set: SRB cytotoxicity assay, 48 hours, parental cell line A129. Type of data set: cell-based. The conditions noted are these: A129, 48 hours. How it is done: (§1) The parental non-mutated cell line A129 was used as control.
(§2) Briefly, cells were plated in 96 well dishes 24 hours prior to compound addition. The assay was terminated with the addition of cold TCA to a final concentration of 10% and the plates were incubated for one hour at 4° C. The plates were then washed 5 times with water and 100 μl of a Sulforhodamine B solution ([…]) was added to each well. The plate was then incubated for 10 minutes at room temperature before removal of unbound dye by washing with 1% acetic acid. The bound dye was solubilized with 10 mM Trizma base and the absorbance read at OD570.
(§3) Numbers in brackets indicate how often experiments were performed. In each single experiment a minimum of three replica wells was used for each drug concentration and cell line. Shown are mean values and standard deviations of the IC50s, as determined in the individual experiments. RR denominates the relative resistance, i.e. the relative level of resistance conferred to the indicated drugs.

A further data set concerns A129 cp80 cell line. Kind of data set: SRB cytotoxicity assay, 48 hours, cisplatin-resistant A129 cp80. Type of data set: cell-based. How it is done: as §1, §2, §3
Data set [2] has as its system UM-UC-3 cell line. Kind of data set: SRB assay, sequential: JM-118 48 hours, followed by gemcitabine 48 hours. Type of data set: cell-based. The conditions noted are these: Homo sapiens, UMUC3, JM118 first, read-out: Growth inhibition. As for the experimental part:
(§4) Gemcitabine was dissolved in saline at a concentration of 10 mM. Cells were seeded at 1,500 cells per well.
Cells were incubated with both compounds sequentially, wherein cells were incubated with JM118 first.

Data set [3] has as its system UM-UC-3 cell line. Kind of data set: SRB assay, sequential: gemcitabine 48 hours, followed by JM118 48 hours. Type of data set: cell-based. The conditions noted are these: Homo sapiens, UMUC3, Gemcitabine first, read-out: Growth inhibition. As for the experimental part:
as §4
Cells were incubated with both compounds sequentially, wherein cells were incubated with gemcitabine first.

Consider `O=c1[nH]cc(F)c(=O)[nH]1` [5FU, 5-fluorouracil], for which the inhibition at 0.3125 µM in the data set on MCF7 cell line (JM118 0 + 5FU 0.3125 μM) came to 1.1%. Further, the inhibition at 0.625 µM in the data set on MCF7 cell line (JM118 0 + 5FU 0.625 μM) came to 2.9%. Further, the inhibition at 1.25 µM in the data set with MCF7 cell line (JM118 0 + 5FU 1.25 μM) was determined as 7.2%. For the same compound, the inhibition at 2.5 µM with MCF7 cell line (JM118 0 + 5FU 2.5 μM) was determined as 17.3%. Moreover, the inhibition at 5 µM in the data set on MCF7 cell line (JM118 0 + 5FU 5 μM) amounted to 37.4%. In the data set on MCF7 cell line (JM118 0 + 5FU 10 μM), the inhibition at 10 µM worked out at 67.7%.
As for `CCCCCOC(=O)Nc1nc(=O)n([C@@H]2O[C@H](C)[C@@H](O)[C@H]2O)cc1F` [Capecitabine], the “tumor log cell kill” value in data set [1] (capecitabine 750 mg/kg alone) was determined as 0.2. Besides, the Median tumor volume in data set [1] (D21) amounted to 98.8 mm^3; in data set [1] (D26), 217.5 mm^3; in data set [1] (D29), 322.1 mm^3; in data set [1] (D33) it was 498.2 mm^3; in data set [1] (D36), 711.0 mm^3; in data set [1] (D40), 1046.3 mm^3. In data set [1] (D43), the Median tumor volume was found to be 1598.0 mm^3. Further, the T/C % in data set [1] (D21) was found to be 124%; in data set [1] (D26) it was 114%; in data set [1] (D29), 81%; in data set [1] (D33), 65%; in data set [1] (D36), 62%; in data set [1] (D40), 66%. For the same compound, the T/C % in data set [1] (D43) was 68%.
Regarding `CC(=O)[O][Pt]([NH2])([Cl])([Cl])([NH]C1CCCCC1)[O]C(C)=O` [Satraplatin], the toxicity in mice result in data set [1] (satraplatin 45 mg/kg) is given as “toxic effects”.
In the case of `N.N.[Cl][Pt][Cl]` [Cisplatin], the IC50 with A129 is 0.23 µM; in the data set on A129 cp80 cell line (A129 cp80, 48 hours), 15.1 µM. Moreover, in the data set on A129 cp80 cell line (A129 cp80 versus A129), the “RR (relative resistance)” value was 80 +/− 25.
Consider `Nc1ccn([C@@H]2O[C@H](CO)[C@@H](O)C2(F)F)c(=O)n1` [Gemcitabine, 2′,2′-difluorodeoxycytidine], for which, in the data set with UM-UC-3 cell line [2] (JM118 0 + Gemcitabine 0.0020 μM), the inhibition at 0.002 µM amounted to 2.6%. In the data set with UM-UC-3 cell line [2] (JM118 0 + Gemcitabine 0.0039 μM), the inhibition at 0.0039 µM was found to be 8.7%. The inhibition at 0.0078 µM with UM-UC-3 cell line [2] (JM118 0 + Gemcitabine 0.0078 μM) is 23.4%. In addition, the inhibition at 0.0156 µM with UM-UC-3 cell line [2] (JM118 0 + Gemcitabine 0.0156 μM) was 43.9%. The inhibition at 0.0313 µM with UM-UC-3 cell line [2] (JM118 0 + Gemcitabine 0.0313 μM) came out at 57.8%. For the same compound, in the data set on UM-UC-3 cell line [2] (JM118 0 + Gemcitabine 0.0625 μM), the inhibition at 0.0625 µM turned out to be 63.3%. For the same compound, in the data set on UM-UC-3 cell line [3] (JM118 0 + Gemcitabine 0.0015625 μM), the inhibition at 0.0015625 µM came out at 0.2%. The inhibition at 0.003125 µM with UM-UC-3 cell line [3] (JM118 0 + Gemcitabine 0.003125 μM) is 1.2%. Moreover, the inhibition at 0.00625 µM with UM-UC-3 cell line [3] (JM118 0 + Gemcitabine 0.00625 μM) is 8.3%. Moreover, the inhibition at 0.0125 µM in the data set on UM-UC-3 cell line [3] (JM118 0 + Gemcitabine 0.0125 μM) came to 41.7%. Besides, in the data set on UM-UC-3 cell line [3] (JM118 0 + Gemcitabine 0.025 μM), the inhibition at 0.025 µM came out at 87.8%. Further, the inhibition at 0.05 µM in the data set on UM-UC-3 cell line [3] (JM118 0 + Gemcitabine 0.05 μM) amounted to 103%.
